Here are results for 20 compounds from article PMC9864251 (Viruses, 2022).

The target of data set [1] is T1, HuNoV (GII.4) RdRp (Norovirus GII.4 (Human norovirus, Norovirus norwalkense), UniProt P54634). Kind of data set: Gel-based (gel-shift) RdRp primed elongation assay with PE44-NoV template. In kind it is biochemical. The following applies: compounds at fixed concentration of 100 μM.
The target in data set [2] is T1, HuNoV (GII.4) RdRp. As to the kind of experiment: Quantitative fluorescent RdRp activity assay (PicoGreen, poly(C) template). In kind it is biochemical. The following applies: compounds at 20 μM in triplicate, normalized to DMSO control.
For another data set, the system named is RAW 264.7 cells. As to the kind of experiment: Cytotoxicity by the MTS method in uninfected RAW 264.7 cells. In kind it is cell-based, mouse. The following applies: 3 days, 0.6–100 μM range, mean ± SD, at least three independent experiments.
In another data set the test system is NoV. Also on record: method as in earlier work. The following applies: cited from earlier work.
Details of data set [3]: method as in earlier work. The following applies: cited from earlier work.
For data set [4], the target named is T1, HuNoV (GII.4) RdRp. The following applies: activity data as previously reported ref 18,19, read-out: In Vitro RdRp Activity Assay IC50; cited from earlier work.
The subject of data set [5] is MNV (virus strain MNV-1.CW1). Kind of data set: MNV antiviral MTS-based cytopathic effect. In kind it is cell-based, murine norovirus. Conditions: Norwalk virus, RAW264.7, 72 h, read-out: MNV EC50. For orientation: Protection from cytopathic effect is a common read-out in antiviral testing.
The subject of the next data set is HuNoVpol. Also on record: method as in earlier work. Conditions: cited from earlier work.
The test system of a further data set is MNV. Also noted: method as in earlier work. The following applies: cited from earlier work.
For a further data set, the system named is MNVpol. Also on record: method as in earlier work. The following applies: cited from earlier work.

Where only a bound is given, the exact number is not on record here.

T1 sequence (P54634 1190-1699): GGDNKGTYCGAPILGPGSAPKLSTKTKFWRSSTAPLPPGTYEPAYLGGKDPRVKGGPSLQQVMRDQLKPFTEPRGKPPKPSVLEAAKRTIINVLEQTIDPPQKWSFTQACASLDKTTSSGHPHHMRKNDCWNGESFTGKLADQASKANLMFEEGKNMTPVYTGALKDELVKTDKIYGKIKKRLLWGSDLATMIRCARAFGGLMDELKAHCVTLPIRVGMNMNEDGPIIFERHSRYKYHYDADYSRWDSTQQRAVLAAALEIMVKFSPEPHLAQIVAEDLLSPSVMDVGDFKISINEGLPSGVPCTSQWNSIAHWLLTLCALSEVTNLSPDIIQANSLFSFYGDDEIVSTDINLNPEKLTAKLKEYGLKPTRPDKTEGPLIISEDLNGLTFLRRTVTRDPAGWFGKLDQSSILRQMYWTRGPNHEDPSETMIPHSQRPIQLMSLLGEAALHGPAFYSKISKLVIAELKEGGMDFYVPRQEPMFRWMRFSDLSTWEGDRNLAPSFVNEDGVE

As to `Cc1ccc(NC(=O)CSc2n[nH]c(-c3ccccc3O)n2)c(C)c1` [Compound 1], at HuNoV (GII.4) RdRp [1], the “Inhibition of RdRp primed elongation activity (gel-shift)” value (shortened to “Inhibition … (gel-shift)”) is reported as “partial inhibition”.

For the compound `Cc1ccc(NC(=O)CSc2n[nH]c(-c3ccccc3O)n2)cc1` [Compound 1b], the “Inhibition … (gel-shift)” value on HuNoV (GII.4) RdRp [1] is “partial inhibition”.

Turning to `Cc1ccc(NC(=O)C[S+]([O-])c2n[nH]c(-c3ccccc3O)n2)c(C)c1` (stereo not drawn) [Compound 1e], the “Inhibition of HuNoV RdRp activity at 20 μM” value (“Inhibition … at 20 μM” below) on HuNoV (GII.4) RdRp [2] was “loss of inhibitory activity”.

In the case of `Cc1ccc(NC(=O)CS(=O)(=O)c2n[nH]c(-c3ccccc3O)n2)c(C)c1` [Compound 1f], the “MNV CC50” value with RAW 264.7 cells was “not associated with any cytotoxicity”. Besides, the “Inhibition … (gel-shift)” value at HuNoV (GII.4) RdRp [1] was “partial inhibition”.

Broadly, the EC50 is the concentration needed to bring the measured effect to its halfway point. As for `C[C@@]1(O)[C@H](O)[C@@H](CO)O[C@H]1n1ccc(N)nc1=O` [Compound 2-CMC, 2′-C-methylcytidine], in the data set with NoV, the half-maximal effective concentration (EC50) was 8.2 µM. Moreover, in data set [3], the CC50 is over 100 µM.

In the case of `COc1ccc(N2C(=O)c3ccc(C(=O)O)cc3C2=O)cc1NC(=O)c1ccccc1` [Compound 2], on HuNoV (GII.4) RdRp [2], the “Inhibition … at 20 μM” value is given as “limited RdRp inhibition”. Moreover, on HuNoV (GII.4) RdRp [1], the “Inhibition … (gel-shift)” value is on record as “partial inhibition”.

In the case of `O=C(Nc1cccc(N2C(=O)c3ccccc3C2=O)c1)c1ccccc1` [Compound 2e], the “Inhibition … at 20 μM” value at HuNoV (GII.4) RdRp [2] is “loss of inhibitory activity”.

As to `O=C(N/N=C/c1ccc(O)cc1O)c1ccccc1OCc1ccccc1` [Compound 3a], the “Inhibition … at 20 μM” value on HuNoV (GII.4) RdRp [2] is on record as “modest inhibition”. Besides, the “Inhibition … (gel-shift)” value at HuNoV (GII.4) RdRp [1] is “did not show significant inhibition”.

On to `O=C(N/N=C/c1ccc(OCc2ccccc2)cc1O)c1ccccc1O` [Compound 3b], for which, on HuNoV (GII.4) RdRp [2], the “Inhibition … at 20 μM” value is “modest inhibition”. In addition, the “Inhibition … (gel-shift)” value at HuNoV (GII.4) RdRp [1] was “did not show significant inhibition”.

As a reminder, the IC50 is the midpoint of a concentration-inhibition curve. As to `Cc1cc(C(=O)O)ccc1-c1ccc(/C=C2\SC(=O)N(CC(=O)N3CCOCC3)C2=O)o1` [Compound 4], the half-maximal inhibitory concentration (IC50) on HuNoV (GII.4) RdRp [4] is 15 µM. The “MNV CC50” value with RAW 264.7 cells is “did not display any cytotoxicity”.

`Cc1cc(O)ccc1-c1ccc(/C=C2\SC(=O)N(CC(=O)N3CCOCC3)C2=O)o1` [Compound 4a]: the “Inhibition … at 20 μM” value on HuNoV (GII.4) RdRp [2] is reported as “modest inhibition”.

In the case of `O=C(CN1C(=O)S/C(=C\c2ccc(-c3ccc(O)cc3)o2)C1=O)N1CCOCC1` [Compound 4b], in the data set with RAW 264.7 cells, the “MNV CC50” value is on record as “cytotoxic effect in the micromolar range”. Further, at HuNoV (GII.4) RdRp [1], the “Inhibition … (gel-shift)” value is given as “significant but partial inhibition”.

For the compound `O=C(CN1C(=O)S/C(=C\c2ccc(-c3ccc(OP(=O)(O)O)cc3)o2)C1=O)N1CCOCC1` [Compound 4c], the “Inhibition … (gel-shift)” value at HuNoV (GII.4) RdRp [1] is given as “partial inhibition”.

As for `O=C1NN(c2ccccc2)C(=O)/C1=C/c1ccc(-c2ccc(S(=O)(=O)Nc3ccccc3)cc2)o1` [Compound 5], at HuNoV (GII.4) RdRp [4], the half-maximal inhibitory concentration (IC50) is 5.6 µM. For the same compound, the concentration giving a half-maximal response (EC50) in data set [5] was over 100 µM. On HuNoV (GII.4) RdRp [1], the “Inhibition … (gel-shift)” value is “completely abolish”.

Regarding `O=C1NN(c2ccc(O)cc2)C(=O)/C1=C/c1ccc(-c2ccc(S(=O)(=O)Nc3ccccc3)cc2)o1` [Compound 5a], the “MNV CC50” value with RAW 264.7 cells is “CC50 value in the low micromolar range”. Also, the “Inhibition … (gel-shift)” value on HuNoV (GII.4) RdRp [1] is on record as “nearly complete inhibition”.

For `NC(=O)c1nc(F)c[nH]c1=O` [Compound T-705, Favipiravir], the 50% effective concentration (EC50) in the data set with NoV is 21 µM. In addition, the CC50 in data set [3] is over 100 µM.

As for `Cc1nc(-c2ccccc2)sc1C(=O)Nc1sc2c(c1C#N)CCC2` [NIC02], the IC50 in the data set on HuNoVpol is 5 µM. In addition, the half-maximal effective concentration (EC50) in the data set with MNV was 4.8 µM.

In the case of `Cc1nc(/N=N/c2cc(S(=O)(=O)O)c3cc([N+](=O)[O-])cc(S(=O)(=O)O)c3c2)c(COP(=O)(O)O)c(C=O)c1O` [PPNDS, reference compound], the 50% inhibitory concentration (IC50) on HuNoV (GII.4) RdRp [4] is 1.5 ± 0.25 µM; with HuNoVpol it was 0.45 µM. The “Inhibition … (gel-shift)” value on HuNoV (GII.4) RdRp [1] is recorded as “complete inhibition”.

In the case of `NC(=O)c1ncn([C@@H]2O[C@H](CO)[C@@H](O)[C@H]2O)n1` [Ribavirin], the EC50 with NoV was 43 µM. For the same compound, the CC50 in data set [3] was over 100 µM.

Consider `Cc1ccc(C(=O)Nc2ccc(S(=O)(=O)O)c3cc(S(=O)(=O)O)cc(S(=O)(=O)O)c23)cc1NC(=O)c1cccc(NC(=O)Nc2cccc(C(=O)Nc3cc(C(=O)Nc4ccc(S(=O)(=O)O)c5cc(S(=O)(=O)O)cc(S(=O)(=O)O)c45)ccc3C)c2)c1` [Suramin], for which the concentration for half-maximal inhibition (IC50) in the data set on HuNoVpol was 0.025 µM; in the data set on MNVpol it was 0.07 µM.
